One test concerns the target T1, GATA5 (Homo sapiens, UniProt Q9BWX5).
T1 construct: we tried to synthesize their full-length proteins using the cell-free system; made in house; host or cells: wheat cell-free protein synthesis system (WEPRO1240 kit)
The test can be described thus: AlphaScreen DNA-binding assay, GATA5. Conditions: pyrrothiogatain 0 to 200 µM. The protocol: (§1) For the protein-DNA binding assay on a 384-well AlphaPlate (Perkin Elmer), 10 μL of bait protein mixture containing 1 µL FLAG-tagged protein in AlphaScreen Buffer (100 mM Tris-HCl (pH 8.0), 150 mM NaCl, 0.1% Tween 20, and 1 mg/mL BSA) and 5 µL biotinylated oligonucleotide (0–10 µM final concentration) in AlphaScreen Buffer were dispended into the AlphaPlate. Then, the plate was incubated at 26 °C for 1 h. After incubation, 10 μL of the detection mixture containing 0.4 µg/mL Anti-DYKDDDDK antibody (1E6, Wako), 0.1 μL streptavidin-conjugated AlphaScreen donor beads, and 0.1 μL protein A-conjugated AlphaScreen acceptor beads in AlphaScreen Buffer was mixed and incubated at 26 °C for 1 h, and then, the AlphaScreen signal was detected using an EnVision device with the AlphaScreen signal detection program (PerkinElmer).
(§2) For the AlphaScreen-based chemical library screening, we used a diverse set of 9,600 synthesized chemicals established by the Drug Discovery Initiative (The University of Tokyo, Tokyo, Japan). All chemical compounds (10 mM) were dissolved in DMSO, and were pre-dispensed into a 384-well Alphaplate (250 nL/well). […] The AlphaScreen signal was detected using an EnVision device with the AlphaScreen signal detection program (PerkinElmer). […]

The next test relates to cytokine production. The test can be described thus: ELISA of cytokine production, total CD4+ T cells under IL-2 conditions. It counts as cell-based, mouse. As to conditions: 30 µM, five days. The protocol:
C57BL/6 mice were purchased from Clea (Clea Japan, Inc., Tokyo, Japan). Total CD4^+ T cells isolated from mouse spleen were prepared using a FITC anti-mouse CD4 antibody (Cat#100510, RM4–5, BioLegend) and anti-FITC-microbeads (Cat#130-097-050, Miltenyi Biotec). Naive CD4^+ T cells (CD44^low, CD62L^high) were prepared using a MojoSort Mouse CD4 T cell Isolation Kit (Cat#480033), BioLegend). Biotinylated anti-CD44 (Cat#103004, IM7) and anti-CD25 antibodies (Cat#102004, PC61) were purchased from BioLegend. […]
The CD4^+ T cells cultured for five days were stimulated using an immobilized anti-TCR-β mAb (3 µg/mL, H57–597, BioLegend) for 16 h, and the culture supernatants were recovered. The amount of cytokines in the recovered supernatants was determined with ELISA using the following antibodies and reagents: anti-IL-4 mAb (Cat#554387, BD Biosciences), biotin-anti-IL-4 mAb (Cat#554390, BD Biosciences), anti-IL-5 mAb (Cat#554393, BD Biosciences), biotin-anti-IL-5 mAb (Cat#554397, BD Biosciences), anti-IFN-γ mAb (Cat#551216, BD Biosciences), biotin-anti-IFN-γ mAb (Cat#554410, BD Biosciences), anti-IL-2 mAb (Cat#554424, BD Biosciences), biotin-anti-IL-2 mAb (Cat#554426, BD Biosciences), streptavidin horseradish peroxidase (Cat#434323, Invitrogen), and TMB peroxidase EIA substrate kit (Cat#1721066, BioRad). […]

The target in test [1] is T2, GATA3 (Homo sapiens, UniProt P23771).
T2 construct: we synthesized the recombinant full-length GATA3 protein with an N-terminal FLAG tag using the wheat cell-free system; made in house; host or cells: wheat cell-free protein synthesis system (WEPRO1240 kit)
T2 sequence (P23771 whole entry, species assumed): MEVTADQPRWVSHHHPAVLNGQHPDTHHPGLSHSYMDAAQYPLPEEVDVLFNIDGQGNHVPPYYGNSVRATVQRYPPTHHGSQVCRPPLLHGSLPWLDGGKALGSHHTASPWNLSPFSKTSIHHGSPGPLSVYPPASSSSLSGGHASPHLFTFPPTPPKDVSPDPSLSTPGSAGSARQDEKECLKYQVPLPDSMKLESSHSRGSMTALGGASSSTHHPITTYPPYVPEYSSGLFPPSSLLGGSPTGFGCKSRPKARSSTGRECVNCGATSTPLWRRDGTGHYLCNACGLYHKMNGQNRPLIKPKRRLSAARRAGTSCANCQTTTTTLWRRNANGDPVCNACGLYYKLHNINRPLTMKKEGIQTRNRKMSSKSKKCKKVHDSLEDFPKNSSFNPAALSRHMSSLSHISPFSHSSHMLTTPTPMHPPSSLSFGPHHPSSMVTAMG
The test can be described thus: Electrophoretic mobility shift assay (EMSA), GATA3. It counts as binding. As to conditions: 50 to 100 µM. The protocol: Electrophoretic mobility shift assays were performed as described previously. In brief, four GATA family proteins (GATA2 to GATA5) were incubated with a ^32P-labelled GATA-binding DNA probe for 20 min at 4 °C in the presence or absence of pyrrothiogatain (0 to 100 µM). The DNA-protein complex was separated from free oligonucleotides on 4% polyacrylamide gels, and then, the ^32P-labelled DNA probes were detected using the Typhoon FLA 7000 (GE Healthcare).

Test [2] has as its target T2, GATA3. The test can be described thus: AlphaScreen DNA-binding assay, GATA3 with GATA consensus DNA. On the procedure:
as §1, §2
In general terms: Bead proximity is the source of the signal in Alpha formats.

pIC50: −log10 of the molar value. Several values for one entry are separate records, joined by “and”; a condition that tells them apart may be missing. Equal values may be shown once.

T1 sequence (Q9BWX5 whole entry, species assumed): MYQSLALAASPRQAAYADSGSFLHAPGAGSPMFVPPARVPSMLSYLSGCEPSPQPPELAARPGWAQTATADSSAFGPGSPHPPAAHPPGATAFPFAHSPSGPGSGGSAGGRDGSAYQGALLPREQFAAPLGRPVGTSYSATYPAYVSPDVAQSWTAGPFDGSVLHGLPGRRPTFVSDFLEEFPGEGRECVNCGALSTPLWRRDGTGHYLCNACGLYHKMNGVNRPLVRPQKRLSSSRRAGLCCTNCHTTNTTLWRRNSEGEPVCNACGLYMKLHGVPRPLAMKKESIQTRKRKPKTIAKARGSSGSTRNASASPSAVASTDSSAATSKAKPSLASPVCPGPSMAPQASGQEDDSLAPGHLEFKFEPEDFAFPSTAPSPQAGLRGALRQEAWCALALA

What is called pIC50 is −log10 of the IC50, conventionally taken in molar units. As for `Cc1ccc(C)n1-c1ccsc1C(=O)O` [Pyrrothiogatain, 3-(2,5-dimethyl-1H-pyrrol-1-yl)thiophene-2-carboxylic acid], on GATA5, the pIC50 was ~4.30 and 4.31. Moreover, in the test on cytokine production, the “Production of IFN-γ (ELISA)” value was “Increased”; the “Production of IL-4, IL-5, IL-10, and IL-13 (ELISA)” value is reported as “decreased”. Also, the “Intensity of the shifted bands generated by GATA3-DNA binding” value at GATA3 [1] is “decreased”. For the same molecule, the pIC50 at GATA3 [2] (AlphaScreen, pyrrothiogatain 0 to 200 µM) is ~4.30 and 4.26. For the same molecule, the “Inhibition of GATA3–DNA binding in the second screen” value on GATA3 [2] (second screen, 0 to 10 µM) was “specifically inhibited”.

The record behind these values is PMC6874683, “Pyrrothiogatain acts as an inhibitor of GATA family proteins and inhibits Th2 cell differentiation in vitro” (Scientific Reports, 2019).
